Results from patent US20090325959A1 (priority 2008, published 2009).
Like-named read-outs stand apart in the source and are kept apart here.

Tests used:
ROCK2 = target: T1, ROCK2 (Homo sapiens, UniProt O75116); assay: Rho kinase inhibition assay (IMAP fluorescence polarization), ROCK2; assay type: biochemical;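 note: kinase reaction started with 10 µM ATP and run 60 min at room temperature, then phosphorylated substrate captured on IMAP beads for 30 min and fluorescence polarization read in mP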
T1 construct: purchased Upstate/Chemicon 14-451
T1 sequence (O75116 11-552 limits assumed): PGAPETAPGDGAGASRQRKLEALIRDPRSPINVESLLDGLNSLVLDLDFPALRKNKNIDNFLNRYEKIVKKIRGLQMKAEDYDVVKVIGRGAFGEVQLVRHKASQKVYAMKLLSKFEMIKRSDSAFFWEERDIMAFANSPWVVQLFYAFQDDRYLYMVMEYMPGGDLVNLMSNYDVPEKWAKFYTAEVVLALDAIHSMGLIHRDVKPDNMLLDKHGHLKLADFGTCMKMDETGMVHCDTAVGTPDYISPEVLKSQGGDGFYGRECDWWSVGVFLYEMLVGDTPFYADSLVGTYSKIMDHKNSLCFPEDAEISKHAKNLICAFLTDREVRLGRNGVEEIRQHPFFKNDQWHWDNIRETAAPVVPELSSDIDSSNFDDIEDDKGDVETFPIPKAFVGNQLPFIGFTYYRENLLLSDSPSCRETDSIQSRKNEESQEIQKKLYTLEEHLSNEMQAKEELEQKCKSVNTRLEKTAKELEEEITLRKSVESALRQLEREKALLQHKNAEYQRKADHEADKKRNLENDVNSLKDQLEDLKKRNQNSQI
Protocol: (§1) Following the pre-incubation, 10 μM ATP was added to initiate the reaction. After 60 minutes at room temperature, Molecular Devices IMAP™ binding solution was added to bind phosphorylated substrate. After 30 minutes of incubation in the presence of the IMAP™ beads, the fluorescence polarization was read and the ratio was reported as mP. IC50 values for compounds and EC50 values for ATP were calculated using the Prism software from Graphpad.

p70S6K human enzyme = target: T2, p70S6K human enzyme (Homo sapiens, UniProt P23443, T412E); assay: p70S6K inhibition assay (IMAP FP); assay type: biochemical;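 note: kinase reaction run at room temperature, phosphorylated substrate captured on IMAP beads and read as fluorescence polarization in mP, IC50 then converted to Ki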
T2 construct: purchased Upstate Chemicon 14-486
T2 sequence (P23443 1-421 T412E limits assumed): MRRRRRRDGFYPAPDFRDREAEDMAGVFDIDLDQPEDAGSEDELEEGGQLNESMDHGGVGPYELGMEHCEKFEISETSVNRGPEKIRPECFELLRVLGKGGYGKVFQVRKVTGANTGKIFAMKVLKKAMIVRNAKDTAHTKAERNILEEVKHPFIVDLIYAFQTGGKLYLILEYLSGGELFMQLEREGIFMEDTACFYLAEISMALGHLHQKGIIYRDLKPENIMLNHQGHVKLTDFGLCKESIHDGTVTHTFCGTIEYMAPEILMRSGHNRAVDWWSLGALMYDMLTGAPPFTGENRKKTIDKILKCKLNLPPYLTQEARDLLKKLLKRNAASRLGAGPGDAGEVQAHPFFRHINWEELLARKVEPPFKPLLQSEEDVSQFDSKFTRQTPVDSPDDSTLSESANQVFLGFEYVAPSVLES

ROCK1 = target: T3, ROCK1 (Homo sapiens, UniProt Q13464); assay: Rho kinase inhibition assay (IMAP fluorescence polarization), ROCK1; assay type: biochemical;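 note: kinase reaction run 60 min at room temperature, then phosphorylated substrate captured on IMAP beads for 30 min, with fluorescence polarization read in mP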
T3 construct: purchased Upstate/Chemicon 14-601
T3 sequence (Q13464 17-535 limits assumed): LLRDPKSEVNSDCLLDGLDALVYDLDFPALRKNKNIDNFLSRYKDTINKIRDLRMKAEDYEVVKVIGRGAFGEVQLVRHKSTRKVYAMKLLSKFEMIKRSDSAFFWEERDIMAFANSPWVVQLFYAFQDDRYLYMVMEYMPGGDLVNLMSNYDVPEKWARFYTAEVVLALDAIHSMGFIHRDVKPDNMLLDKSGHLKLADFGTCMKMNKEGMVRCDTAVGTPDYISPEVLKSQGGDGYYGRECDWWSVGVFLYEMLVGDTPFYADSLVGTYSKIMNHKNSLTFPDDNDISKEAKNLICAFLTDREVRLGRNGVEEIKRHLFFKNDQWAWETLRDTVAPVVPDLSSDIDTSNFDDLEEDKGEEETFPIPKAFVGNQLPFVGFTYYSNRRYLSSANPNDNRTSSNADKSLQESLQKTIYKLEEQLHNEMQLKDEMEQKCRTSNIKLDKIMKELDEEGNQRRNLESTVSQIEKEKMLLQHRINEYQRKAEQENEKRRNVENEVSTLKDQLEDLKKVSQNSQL
Protocol: as §1

[1] = test system: A-10 rat thoracic aorta cells; assay: PDGF-stimulated smooth muscle cell proliferation assay (BrdU incorporation); assay type: cell-based; details: A-10 cells, 10 ng/mL PDGF, BrdU incorporation, percent of total challenge-stimulated proliferation; for Percent of PDGF Induced Proliferation at 1 μM Avg: 1 μM test compound; for Percent of PDGF Induced Proliferation at 10 μM Avg: 10 μM test compound;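 for all read-outs here: cells kept in serum-free medium, BrdU allowed to incorporate for 24 h, then incorporated label detected fluorometrically with an anti-BrdU antibody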
Protocol: Effects on cell proliferation were measured using a bromodeoxyuridine (BrdU) incorporation assay. […] Serum free media containing 01% BSA was added to the cells. 24 hours later the media was removed and replaced with warmed serum free media. […] Proliferation was then monitored using the BrdU Cell Proliferation Assay, HTS (Calbiochem cat. #t HTS01). BrdU was allowed to incorporate into cells for 24 hours prior to the addition of fixative/denaturing solution and the fluorometric detection of incorporated BrdU using a BrdU antibody as per manufacturer's directions. Data are reported as a percent of the PDGF-stimulated BrdU incorporation.

Akt3 human enzyme = target: T4, Akt3 human enzyme (Homo sapiens, UniProt Q9Y243); assay: Akt3 inhibition assay (IMAP FP); assay type: biochemical;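 note: kinase reaction run 60 min at room temperature after 30 µM ATP start, phosphorylated substrate captured on IMAP beads and read as fluorescence polarization (mP)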
T4 construct: purchased Upstate Chemicon 14-502
T4 sequence (Q9Y243 whole entry): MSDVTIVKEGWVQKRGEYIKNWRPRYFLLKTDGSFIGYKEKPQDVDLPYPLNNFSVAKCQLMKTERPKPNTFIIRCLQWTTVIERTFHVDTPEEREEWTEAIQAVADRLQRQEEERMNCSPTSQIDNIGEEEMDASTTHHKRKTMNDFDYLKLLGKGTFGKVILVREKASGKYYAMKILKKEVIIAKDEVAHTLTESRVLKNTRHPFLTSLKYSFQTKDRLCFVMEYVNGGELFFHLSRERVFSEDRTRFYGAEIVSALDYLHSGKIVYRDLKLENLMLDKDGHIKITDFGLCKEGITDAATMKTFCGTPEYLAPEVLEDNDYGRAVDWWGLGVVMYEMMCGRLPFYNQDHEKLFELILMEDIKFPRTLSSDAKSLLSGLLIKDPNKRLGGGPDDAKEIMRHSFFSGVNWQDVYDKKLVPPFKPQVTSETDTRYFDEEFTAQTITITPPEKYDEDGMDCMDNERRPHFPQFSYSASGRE

[2] = Compound plasma concentrations in unsensitized mice at 15 min post administration; assay type: in vivo; details: mouse, 15 μmol/kg; mean compound plasma concentration in mice at 15 minutes post oral administration; read-out: Mouse Oral PK
[3] = 10 μM ATP, read-out: ROCK2 Ki, Avg
[4] = 30 μM ATP, Ki=IC50/(1+([ATP Challenge]/EC50 ATP)), read-out: p70S6K Ki, Avg
[5] = 30 μM ATP, Ki=IC50/(1+([ATP Challenge]/EC50 ATP)), read-out: Akt3 Ki, Avg
[6] = average Ki, read-out: p70S6K Ki

| SMILES | Ki (ROCK2; [3]) | Ki (p70S6K human enzyme; [4]) | Ki (ROCK1; Avg, 10 μM ATP) | Percent of PDGF Induced Proliferation at 1 μM Avg [1] | Percent of PDGF Induced Proliferation at 10 μM Avg [1] | Ki (Akt3 human enzyme; [5]) | Ki (ROCK2; average Ki, read-out: ROCK2 Ki) | Ki (p70S6K human enzyme; [6]) | Ki (ROCK1; average Ki) | concentration at 15 min [2] | Ki (Akt3 human enzyme; average Ki, read-out: Akt3 Ki) |
| --- | --- | --- | --- | --- | --- | --- | --- | --- | --- | --- | --- |
| Cc1ccc(CN2CCC[C@H](Nc3ccc4[nH]ncc4c3)C2)cc1O [Compound 1.151, (S)-5-((3-(1H-indazol-5-ylamino)piperidin-1-yl)methyl)2-methylphenol] | 2.9 nM | 531 nM | 22.8 nM | 51.0% | 63.8% | 709 nM | – | – | – | – | – |
| Clc1ccc(CN2CC[C@@H](Nc3cccc4cnccc34)C2)cc1 [Compound 2.027, (R)-N-(1-(4-chlorobenzyl)pyrrolidin-3-yl)isoquinolin-5-amine] | 7.4 nM | 509 nM | 15.7 nM | 79.4% | 64.4% | 658 nM | – | – | – | – | – |
| Cc1ccc(CN2CCC[C@@H](Nc3ccc4[nH]ncc4c3)C2)cc1 [Compound 1.133, (R)-N-(1-(4-methylbenzyl)piperidin-3-yl)-1H-indazol-5-amine] | 4.3 nM | 532 nM | 25 nM | – | – | 148 nM | 4.3 nM | 532 nM | 25 nM | 1100 nM | 148 nM |
| OCCN1CCc2ccc(CN3CCC[C@H](Nc4ccc5[nH]ncc5c4)C3)cc21 [Compound 1.217, (S)-2-(6-((3-(1H-indazol-5-ylamino)piperidin-1-yl)methyl)indolin-1-yl)ethanol] | 12.1 nM | 3500 nM | 70.1 nM | – | – | 10300 nM | 12.1 nM | 3500 nM | 70.1 nM | 293 nM | 10300 nM |
| c1cc(N[C@@H]2CCN(Cc3ccc4occc4c3)C2)c2ccncc2c1 [Compound 2.055, (R)-N-(1-(benzofuran-5-ylmethyl)pyrrolidin-3-yl)isoquinolin-5-amine] | 6.4 nM | 312 nM | 16 nM | – | – | 978 nM | 6.4 nM | 312 nM | 16 nM | 656 nM | 978 nM |
| CSc1ccc(CN2CCC[C@H](Nc3ccc4[nH]ncc4c3)C2)cc1 [Compound 1.075, (S)-N-(1-(4-(methylthio)benzyl)piperidin-3-yl)-1H-indazol-5-amine] | 4.4 nM | 975 nM | 48.7 nM | – | – | 5320 nM | 4.4 nM | 975 nM | 48.7 nM | 348 nM | 5320 nM |
| Cc1ccc(CN2CCC[C@H](Nc3ccc4[nH]ncc4c3)C2)c(C)c1 [Compound 1.155, (S)-N-(1-(2,4-dimethylbenzyl)piperidin-3-yl)-1Hindazol-5-amine] | 7 nM | 1750 nM | 45.4 nM | – | – | 5680 nM | 7 nM | 1750 nM | 45.4 nM | 32 nM | 5680 nM |
| C#Cc1ccc(CN2CCC[C@H](Nc3ccc4[nH]ncc4c3)C2)cc1 [Compound 1.077, (S)-N-(1-(4-ethynylbenzyl)piperidin-3-yl)-1H-indazol-5-amine] | 11.1 nM | 716 nM | 76.1 nM | – | – | 5250 nM | 11.1 nM | 716 nM | 76.1 nM | 26 nM | 5250 nM |
| CS(=O)(=O)Cc1cccc(CN2CCC[C@H](Nc3ccc4[nH]ncc4c3)C2)c1 [Compound 1.157, (S)-N-(1-(3-(methylsulfonylmethyl)benzyl)piperidin-3-yl)-1H-indazol-5-amine] | 8.8 nM | 8690 nM | 264 nM | – | – | 29200 nM | 8.8 nM | 8690 nM | 264 nM | 357 nM | 29200 nM |
